{"source": "patent US10660939B2", "about": "“Therapies for obesity, diabetes and related indications” (Palatin Technologies, Inc., priority 2015, dated 2020)", "key": {"hMC4r [1]": {"biological_target": "T1, hMC4r (Homo sapiens, UniProt P32245)", "T1 construct": "expressed in transfected cells; host or cells: HEK-293", "T1 sequence (P32245 whole entry)": "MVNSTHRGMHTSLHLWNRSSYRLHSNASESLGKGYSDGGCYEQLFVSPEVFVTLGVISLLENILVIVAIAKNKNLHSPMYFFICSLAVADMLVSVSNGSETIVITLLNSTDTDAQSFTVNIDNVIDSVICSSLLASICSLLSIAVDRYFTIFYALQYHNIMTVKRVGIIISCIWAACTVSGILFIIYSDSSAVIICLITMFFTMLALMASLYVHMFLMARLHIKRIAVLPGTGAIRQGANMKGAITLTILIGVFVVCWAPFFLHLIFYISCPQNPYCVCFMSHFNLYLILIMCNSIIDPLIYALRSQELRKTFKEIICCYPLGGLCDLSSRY", "assay": "cAMP accumulation functional assay in HEK-293 cells expressing hMC4r", "assay_type": "cell-based", "details": "agonist = 70% or greater intrinsic activity", "protocol": "Accumulation of intracellular cAMP was examined as a measure of the ability of the MC4r peptides to elicit a functional response in HEK-293 cells that express MC4r. Confluent HEK-293 cells that express recombinant hMC4r were detached from culture plates by incubation in enzyme-free cell dissociation buffer. Dispersed cells were suspended in Earle's Balanced Salt Solution containing 10 mM HEPES (pH 7.5), 1 mM MgCl2, 1 mM glutamine, 0.5% albumin and 0.3 mM 3-isobutyl-1-methyl-xanthine (IBMX), a phosphodiesterase inhibitor. […] Cells were exposed for 15 minutes at 37° C. to peptides of the present invention dissolved in DMSO (final DMSO concentration of 1%) at a concentration range of 0.05-5000 nM in a total assay volume of 200 μL. […] Data analysis was performed by nonlinear regression analysis with Graph-Pad Prism® software. The maximum efficacies of the test peptides of the present invention were compared to that achieved by the reference melanocortin agonist NDP-α-MSH."}, "[2]": {"assay": "diet induced obese mice, Peptide No. 154 with GLP-1, Alzet pumps (Example 8)", "assay_type": "in vivo, mouse", "details": "DIO mice, continuous infusion of 30 mg/kg/day; lost weight only for the first two days; ±0.34 SEM", "procedure": "Groups 1, 2 and 4 were provided ad libitum with a 45% high fat rodent diet. Animals in Group 3 were pair-fed to Group 2. The amount of food consumed in Group 2 was the amount of food given to Group 3 in the next 24 hour period. For group 3 (pair-fed group), the pump was implanted 1 day later than other groups to account for pair-feeding. On day −2 and day 6, animals from Groups 1, 2, and 4 were fasted overnight and baseline and terminal glucose tolerance tests (GTT) was conducted. GTT and insulin levels in Group 3 were conducted one day later. Body weight and food intake were measured each day. To conduct the GTT, on study day −2 (−1 for Group 3) (baseline test) and day 6 (7 for Group 3) (termination test), 1 g/kg glucose was orally administered. Glucose levels were taken prior to glucose administration and 15, 30, 60, 90 and 120 minutes post-glucose administration.\nData is expressed as percent change at the termination test, ±standard deviation (SD) from the baseline test. This was calculated as: (AUCday 7−AUCday −2)[…] In FIG. 1, diet induced obese mice were administered MC4r 154 (30 mg/kg/day) either with or without 0.1 mg/kg/day GLP-1, with one group pair fed to the MC4r 154 group but administered only GLP-1 (“Pair-Fed to MC4r 154+GLP-1”).\nData is shown as the average of body weight change in grams±standard error of the mean (SEM) from study day 0."}, "[3]": {"assay": "diet induced obese Sprague-Dawley rats, GLP-1 infusion and Peptide No. 154 b.i.d., fasted glucose and insulin (Example 9)", "assay_type": "in vivo, rat", "details": "DIO rats, 1.0 mg/kg Peptide No. 154 b.i.d. alone", "procedure": "9. MC4r 154 was evaluated with GLP-1 to determine effect on body weight and feed intake in diet induced obese Sprague-Dawley rats. Rats were acquired at 17 weeks and pre-conditioned for 5 weeks on high fat diet prior to dosing. No sharp increase in weight was noted, likely due to late onset of the high fat diet. At study day −2, baseline GTT and insulin levels were assessed on 16-hour fasted animals. Animals were then permitted a 2-day recovery period, and on study day 0, animals were randomized into treatment groups by body weight and Alzet continuous infusion pumps containing either vehicle or GLP-1 (for dosing at either 10 or 100 μg/kg/day) were implanted. Beginning on study day 1, body weight and feed weights were taken in the mornings. Beginning on study day 4, twice daily (b.i.d.) subcutaneous dosing of saline was initiated for all groups other than the treatment naïve group to acclimate the animals to handling and subcutaneous dosing. […] Animals were fasted for the 16 hours prior to the GTT.\nData is shown as the percent change from study day −2 baseline test±SEM.\nFIG. 4 compares the fasted insulin levels at study day −2 and study day 12, with insulin measured after 16 hour fast and prior to GTT testing. Data is shown as ng/mL insulin±SEM."}, "[4]": {"assay": "diet induced obese rats, GLP-1 infusion and Peptide No. 154 twice daily, body weight and feed intake (Example 11)", "assay_type": "in vivo, rat", "details": "DIO rats", "procedure": "11. […] Each treatment group was compared to the vehicle group using t-test, one-way ANOVA or two-way ANOVA followed by Dunnett's multiple comparisons (GraphPad). A p value<0.05 was considered to represent a significant difference.\nIndividual body weights were measured on study days 1-9. Percent change in body weight is calculating according to this formula: 100*(value-baseline)/baseline, where value is the weight of the animal on study day in question and baseline is the weight of the same animal on study day −1.\nOn days 1-4, feeds were weighed at 0, and 24 hours after lights off. On days 5-9, feeds were weighed at 0, 2, 6 and 24 hours after lights off."}, "[5]": {"assay": "DIO mice, single daily subcutaneous bolus dose of Peptide No. 154 (Example 10)", "assay_type": "in vivo, mouse", "details": "single daily subcutaneous dose of 3 mg/kg, on day 5, ±0.6 SEM", "procedure": "10. […] By contrast, animals receiving a single daily subcutaneous dose of 3 mg/kg continuously lost weight over 5 days, and reached a maximum weight loss on day 5 of 4.2 g±0.6 SEM compared to baseline (study day 0)."}, "hMC4r [6]": {"biological_target": "T1, hMC4r", "assay": "competitive inhibition binding assay with [I125]-NDP-α-MSH, membrane homogenates of HEK-293 cells", "details": "averaged values, not marked *: [I125]-NDP-α-MSH; read-out: MC4r Ki", "procedure": "Assays were performed in 96 well GF/B Millipore multiscreen filtration plates (MAFB NOB10) pre-coated with 0.5% bovine serum albumin (Fraction V). […] After incubation for 60 minutes at 37° C., the assay mixture was filtered and the membranes washed three times with ice-cold buffer. Filters were dried and counted in a gamma counter for bound radioactivity. […] Maximal specific binding (100%) was defined as the difference in radioactivity (cpm) bound to cell membranes in the absence and presence of 1 μM NDP-α-MSH. […] Each assay was conducted in triplicate and the actual mean values are described, with results less than 0% reported as 0%. Ki values for test peptides of the present invention were determined using Graph-Pad Prism® curve-fitting software."}, "hMC4r [7]": {"biological_target": "T1, hMC4r", "assay": "competitive inhibition binding assay with Eu-NDP-α-MSH (time-resolved fluorometry)", "procedure": "After incubation for 90 minutes at 37° C., the reaction was stopped by filtration over AcroWell 96-well filter plates (Pall Life Sciences). The filter plates were washed 4 times with 200 μL of ice-cold phosphate-buffered saline. DELFIA Enhancement solution (PerkinElmer Life Sciences) was added to each well. […] Each assay was conducted in duplicate and mean values were utilized. Ki values were determined by curve-fitting with Graph-Pad Prism® software using a one-site fixed-slope competition binding model."}}}
{"smiles": "CC(=O)N[C@@H](CCCNC(=N)N)C(=O)N[C@H]1CCNC(=O)CCC[C@@H](C(N)=O)NC(=O)[C@H](Cc2c[nH]c3ccccc23)NC(=O)[C@H](CCCNC(=N)N)NC(=O)[C@@H](Cc2ccccc2)NC(=O)[C@H](CCN)NC1=O", "note": "[compound 129, Ac-Arg-cyclo(Dab-Dab-D-Phe-Arg-Trp-hGlu)-NH2]", "values": [{"measurement": "functional status at MC4r (agonist / partial agonist)", "setting": "hMC4r [1]", "value": "agonist"}]}
{"smiles": "CC(=O)N[C@@H](CCCNC(=N)N)C(=O)N[C@H]1CCCNC(=O)CC[C@@H](C(N)=O)NC(=O)[C@H](Cc2c[nH]c3ccccc23)NC(=O)[C@H](CCCNC(=N)N)NC(=O)[C@@H](Cc2ccccc2)NC(=O)[C@H](CC(N)=O)NC1=O", "note": "[Peptide No. 154, Ac-Arg-cyclo(Orn-Asn-D-Phe-Arg-Trp-Glu)-NH2]", "values": [{"measurement": "maximum weight loss compared to baseline (study day 0)", "setting": "[2]", "value": 1.76, "unit": "g"}, {"measurement": "decrease in fasted plasma glucose, day -2 to day 12", "setting": "[3]", "value": "most pronounced decrease"}, {"measurement": "appetite on day 9", "setting": "[4]", "value": "recovered on day 9"}, {"measurement": "food intake after start of Peptide No. 154 dosing", "setting": "[4]; Peptide No. 154 s.c. from day 5", "value": "decreased starting on day 5"}, {"measurement": "feed intake at 2 and 6 hours post lights off compared with vehicle", "setting": "[4]; days 5-9", "value": "significant decreased feed intakes"}, {"measurement": "body weight compared with vehicle", "setting": "[4]; subcutaneous dosing twice daily, days 5-10", "value": "decreased animal's body weight significantly"}, {"measurement": "maximum weight loss compared to baseline (study day 0)", "setting": "[5]", "value": 4.2, "unit": "g"}]}
{"smiles": "CC(=O)N[C@@H](CCCNC(=N)N)C(=O)N[C@H]1CCCC(=O)NCC[C@@H](C(N)=O)NC(=O)[C@H](Cc2c[nH]c3ccccc23)NC(=O)[C@H](CCCNC(=N)N)NC(=O)[C@@H](Cc2ccccc2)NC(=O)[C@H](CCN)NC1=O", "note": "[compound 127, Ac-Arg-cyclo(hGlu-Dab-D-Phe-Arg-Trp-Dab)-NH2]", "values": [{"measurement": "functional status at MC4r (agonist / partial agonist)", "setting": "hMC4r [1]", "value": "agonist"}]}
{"smiles": "CC(=O)N[C@@H](CCCNC(=N)N)C(=O)N[C@H]1CC(=O)NCCCC[C@@H](C(N)=O)NC(=O)[C@H](Cc2c[nH]c3ccccc23)NC(=O)[C@H](CCCNC(=N)N)NC(=O)[C@@H](Cc2ccccc2)NC(=O)[C@H](Cc2c[nH]cn2)NC1=O", "note": "[Peptide No. 1, Ac-Arg-cyclo(Asp-His-D-Phe-Arg-Trp-Lys)-NH2]", "values": [{"measurement": "functional status at MC4r (agonist / partial agonist)", "setting": "hMC4r [1]", "value": "agonist"}]}
{"smiles": "CC(=O)N[C@@H](CCCNC(=N)N)C(=O)N[C@H]1CCCC(=O)NCC[C@@H](C(N)=O)NC(=O)[C@H](Cc2c[nH]c3ccccc23)NC(=O)[C@H](CCCNC(=N)N)NC(=O)[C@@H](Cc2ccccc2)NC(=O)[C@H](Cc2c[nH]cn2)NC1=O", "note": "[compound 126, Ac-Arg-cyclo(hGlu-His-D-Phe-Arg-Trp-Dab)-NH2]", "values": [{"measurement": "functional status at MC4r (agonist / partial agonist)", "setting": "hMC4r [1]", "value": "agonist"}]}
{"smiles": "CC(=O)N[C@@H](CCCNC(=N)N)C(=O)N[C@H]1CC(=O)NCCCC[C@@H](C(N)=O)NC(=O)[C@H](Cc2c[nH]c3ccccc23)NC(=O)[C@H](CCCNC(=N)N)NC(=O)[C@@H](Cc2ccccc2)NC(=O)[C@H](CCN)NC1=O", "note": "[compound 163, Ac-Arg-cyclo(Asp-Dab-D-Phe-Arg-Trp-Lys)-NH2]", "values": [{"measurement": "Ki", "setting": "hMC4r [6]", "value": 4, "unit": "nM"}]}
{"smiles": "CC(=O)N[C@@H](CCCNC(=N)N)C(=O)N[C@H]1CC(=O)NCCCC[C@@H](C(=O)O)NC(=O)[C@H](Cc2c[nH]c3ccccc23)NC(=O)[C@H](CCCNC(=N)N)NC(=O)[C@@H](Cc2ccccc2)NC(=O)[C@H](CCN)NC1=O", "note": "[compound 164, Ac-Arg-cyclo(Asp-Dab-D-Phe-Arg-Trp-Lys)-OH]", "values": [{"measurement": "Ki", "setting": "hMC4r [6]", "value": 57, "unit": "nM"}]}
{"smiles": "CC(=O)NCC[C@@H]1NC(=O)[C@@H](NC(=O)[C@H](CCCNC(=N)N)NC(C)=O)CC(=O)NCCCC[C@@H](C(N)=O)NC(=O)[C@H](Cc2c[nH]c3ccccc23)NC(=O)[C@H](CCCNC(=N)N)NC(=O)[C@@H](Cc2ccccc2)NC1=O", "note": "[compound 114, Ac-Arg-cyclo(Asp-Dab(Acetyl)-D-Phe-Arg-Trp-Lys)-NH2]", "values": [{"measurement": "Ki", "setting": "hMC4r [7]", "value": 88, "unit": "nM"}]}
{"smiles": "CC(=O)N[C@@H](CCCNC(=N)N)C(=O)N[C@H]1CC(=O)NCCCC[C@@H](C(N)=O)NC(=O)[C@H](Cc2c[nH]c3ccccc23)NC(=O)[C@H](CCCNC(=N)N)NC(=O)[C@@H](Cc2ccccc2)NC(=O)[C@H](C(C)C)NC1=O", "note": "[Peptide No. 16, Ac-Arg-cyclo(Asp-Val-D-Phe-Arg-Trp-Lys)-NH2]", "values": [{"measurement": "functional status at MC4r (agonist / partial agonist)", "setting": "hMC4r [1]", "value": "partial agonist"}]}
{"smiles": "CC(=O)N[C@@H](CCCNC(=N)N)C(=O)N[C@H]1CCNC(=O)CCC[C@@H](C(N)=O)NC(=O)[C@H](Cc2c[nH]c3ccccc23)NC(=O)[C@H](CCCNC(=N)N)NC(=O)[C@@H](Cc2ccccc2)NC(=O)[C@H](Cc2c[nH]cn2)NC1=O", "note": "[compound 128, Ac-Arg-cyclo(Dab-His-D-Phe-Arg-Trp-hGlu)-NH2]", "values": [{"measurement": "functional status at MC4r (agonist / partial agonist)", "setting": "hMC4r [1]", "value": "agonist"}]}
{"smiles": "CC(=O)N[C@@H](CCCNC(=N)N)C(=O)N[C@H]1CC(=O)NCCCC[C@@H](C(N)=O)NC(=O)[C@H](Cc2c[nH]c3ccccc23)NC(=O)[C@H](CCCNC(=N)N)NC(=O)[C@@H](Cc2ccccc2)NC(=O)[C@H](CCC(N)=O)NC1=O", "note": "[Peptide No. 32, Ac-Arg-cyclo(Asp-Gln-D-Phe-Arg-Trp-Lys)-NH2]", "values": [{"measurement": "functional status at MC4r (agonist / partial agonist)", "setting": "hMC4r [1]", "value": "agonist"}]}
